Patent EP3807270B1, “NOVEL HETEROARYL HETEROCYCLYL COMPOUNDS FOR THE TREATMENT OF AUTOIMMUNE DISEASE” (F. Hoffmann-La Roche AG, priority 2018, dated 2019)

Experiments:
[1] = target: T1, hTLR7 (Homo sapiens, UniProt Q9NYK1); experiment: HEK293-Blue-hTLR-7 cells assay (SEAP reporter, R848 stimulation); assay type: cell-based; set-up: host or cells: HEK293 (HEK-Blue); conditions: HEK293-Blue-hTLR7 cells, R848, 20 hrs; read-out: HEK/hTLR7 IC50
T1 sequence (Q9NYK1 27-1049): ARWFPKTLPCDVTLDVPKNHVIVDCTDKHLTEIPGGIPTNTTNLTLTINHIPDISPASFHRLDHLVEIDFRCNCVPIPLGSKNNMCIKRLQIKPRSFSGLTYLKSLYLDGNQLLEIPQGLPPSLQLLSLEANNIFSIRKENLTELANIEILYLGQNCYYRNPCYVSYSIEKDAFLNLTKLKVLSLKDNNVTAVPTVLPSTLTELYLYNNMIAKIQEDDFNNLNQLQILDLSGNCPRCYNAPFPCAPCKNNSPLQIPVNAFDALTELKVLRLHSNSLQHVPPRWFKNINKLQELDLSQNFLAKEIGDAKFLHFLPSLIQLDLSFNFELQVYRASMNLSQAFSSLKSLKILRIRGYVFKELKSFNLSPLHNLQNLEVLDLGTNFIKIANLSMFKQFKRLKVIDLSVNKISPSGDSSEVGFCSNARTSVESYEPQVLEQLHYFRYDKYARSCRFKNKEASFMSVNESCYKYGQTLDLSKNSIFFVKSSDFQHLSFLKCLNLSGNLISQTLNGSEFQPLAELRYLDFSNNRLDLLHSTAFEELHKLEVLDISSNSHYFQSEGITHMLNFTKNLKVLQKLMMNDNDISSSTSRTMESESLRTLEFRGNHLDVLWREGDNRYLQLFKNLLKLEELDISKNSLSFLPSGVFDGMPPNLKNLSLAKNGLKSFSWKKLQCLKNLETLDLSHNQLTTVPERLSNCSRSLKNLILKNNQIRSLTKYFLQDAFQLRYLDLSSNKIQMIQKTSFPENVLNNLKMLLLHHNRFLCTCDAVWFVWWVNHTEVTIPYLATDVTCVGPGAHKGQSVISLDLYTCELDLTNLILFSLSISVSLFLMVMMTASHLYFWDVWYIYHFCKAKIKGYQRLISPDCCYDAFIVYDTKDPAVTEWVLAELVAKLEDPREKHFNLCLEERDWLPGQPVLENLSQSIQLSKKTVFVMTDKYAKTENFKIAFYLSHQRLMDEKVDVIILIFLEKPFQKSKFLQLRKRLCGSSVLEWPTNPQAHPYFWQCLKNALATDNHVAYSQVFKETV
In short: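 HEK293-Blue cells stably expressing human TLR7 with an NF-κB/AP-1-driven SEAP reporter were treated with serially diluted compound (1% DMSO final) plus R848 for 20 h at 37 °C. Supernatant SEAP activity was measured with QUANTI-Blue substrate after 2 h at 37 °C, with absorbance read at 620-655 nm.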

[2] = target: T2, hERG channel (Homo sapiens, UniProt Q12809); experiment: hERG channel inhibition assay (patch-clamp, CHO hERG cells); assay type: cell-based; conditions: for IC50 / IC20: CHO hERG cells, whole-cell patch-clamp; for IC20: human, CHO cells stably expressing hERG; for hERG IC20 / TLR8 IC50 / hERG IC20 / TLR7 IC50 / hERG IC20 / TLR9 IC50: safety ratio; for hERG IC20 / TLR7 IC50: TLR7 IC50 of ER compounds from Table 1; for hERG IC20 / TLR9 IC50: TLR9 IC50 of ER compounds from Table 1
T2 construct: expressed in transfected cells; host or cells: CHO (Chinese hamster ovary)
Protocol: The hERG K^+ channels were cloned in humans and stably expressed in a CHO (Chinese hamster ovary) cell line. CHOhERG cells were used for patch-clamp (voltage-clamp, whole-cell) experiments. Cells were stimulated by a voltage pattern to activate hERG channels and conduct IKhERG currents (rapid delayed outward rectifier potassium current of the hERG channel). After the cells were stabilized for a few minutes, the amplitude and kinetics of IKhERG were recorded at a stimulation frequency of 0.1 Hz (6 bpm). Thereafter, the test compound was added to the preparation at increasing concentrations. For each concentration, an attempt was made to reach a steady-state effect, usually, this was achieved within 3-10 min at which time the next highest concentration was applied. The amplitude and kinetics of IKhERG are recorded in each concentration of the drug which were compared to the control values (taken as 100%). (references: Redfern WS, Carlsson L, Davis AS, Lynch WG, MacKenzie I, Palethorpe S, Siegl PK, Strang I, Sullivan AT, Wallis R, Camm AJ, Hammond TG. 2003; Relationships between preclinical cardiac electrophysiology, clinical QT interval prolongation and torsade de pointes for a broad range of drugs: evidence for a provisional safety margin in drug development. Cardiovasc. Res. 58:32-45, Sanguinetti MC, Tristani-Firouzi M. 2006; hERG potassium channels and cardiac arrhythmia. Nature 440:463-469, Webster R, Leishman D, Walker D. 2002; Towards a drug concentration effect relationship for QT prolongation and torsades de pointes. Curr. Opin. Drug Discov. Devel. 5:116-26).
Table 3. hERG and safety ratio results

T2 sequence (Q12809 whole entry): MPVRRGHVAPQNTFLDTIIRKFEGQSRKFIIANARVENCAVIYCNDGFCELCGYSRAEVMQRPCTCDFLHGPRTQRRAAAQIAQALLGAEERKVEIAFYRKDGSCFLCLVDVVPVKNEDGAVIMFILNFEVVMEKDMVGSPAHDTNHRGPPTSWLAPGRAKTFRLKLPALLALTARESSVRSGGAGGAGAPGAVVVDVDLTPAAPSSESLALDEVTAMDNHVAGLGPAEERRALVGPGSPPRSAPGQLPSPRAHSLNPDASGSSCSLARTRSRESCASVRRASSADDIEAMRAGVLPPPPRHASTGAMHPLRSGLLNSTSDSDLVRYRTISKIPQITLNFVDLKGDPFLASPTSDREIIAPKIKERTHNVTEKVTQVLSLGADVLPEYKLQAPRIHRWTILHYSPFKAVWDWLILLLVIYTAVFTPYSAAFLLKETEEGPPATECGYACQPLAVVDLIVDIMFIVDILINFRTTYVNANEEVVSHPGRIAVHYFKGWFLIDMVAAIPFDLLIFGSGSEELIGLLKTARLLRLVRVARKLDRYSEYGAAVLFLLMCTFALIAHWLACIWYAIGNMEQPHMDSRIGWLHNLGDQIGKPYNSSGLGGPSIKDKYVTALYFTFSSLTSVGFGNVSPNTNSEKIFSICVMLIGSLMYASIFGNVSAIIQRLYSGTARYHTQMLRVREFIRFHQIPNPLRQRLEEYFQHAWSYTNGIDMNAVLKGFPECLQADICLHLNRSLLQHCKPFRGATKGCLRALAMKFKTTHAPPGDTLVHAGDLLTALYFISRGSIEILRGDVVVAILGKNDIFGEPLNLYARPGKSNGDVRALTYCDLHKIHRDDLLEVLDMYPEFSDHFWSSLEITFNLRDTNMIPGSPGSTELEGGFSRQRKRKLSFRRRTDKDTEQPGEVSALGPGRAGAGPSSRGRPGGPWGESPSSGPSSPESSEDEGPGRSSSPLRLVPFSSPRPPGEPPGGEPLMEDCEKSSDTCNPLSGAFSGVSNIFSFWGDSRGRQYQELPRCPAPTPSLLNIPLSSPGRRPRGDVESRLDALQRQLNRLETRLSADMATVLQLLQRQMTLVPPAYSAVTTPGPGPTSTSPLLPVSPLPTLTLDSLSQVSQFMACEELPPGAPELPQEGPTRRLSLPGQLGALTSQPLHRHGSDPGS

| IC50 [1] | Structure (SMILES) | IC50 [2] | IC20 [2] | hERG IC20 / TLR8 IC50 [2] | hERG IC20 / TLR7 IC50 [2] | hERG IC20 / TLR9 IC50 [2] |
| --- | --- | --- | --- | --- | --- | --- |
| 20 nM | C[C@@H]1CN(c2ccc(C#N)c3ncccc23)C[C@H](CN2CCN(c3ccc4c(c3)CN(CCO)C4)CC2)O1 [Example 16, 5-[(2S,6R)-2-[[4-[2-(2-hydroxyethyl)isoindolin-5-yl]piperazin-1-yl]methyl]-6-methyl-morpholin-4-yl]quinoline-8-carbonitrile] | > 20000 nM | > 10000 nM | >1000.0 | >490.2 | >110.4 |
| 12 nM | C[C@@H]1CN(c2ccc(C#N)c3ncccc23)C[C@H](CN2CCN(c3ccc4c(n3)CNC4)CC2)O1 [Example 30, 5-[(2S,6R)-2-[[4-(6,7-dihydro-5H-pyrrolo[3,4-b]pyridin-2-yl)piperazin-1-yl]methyl]-6-methyl-morpholin-4-yl] quinoline-8-carbonitrile] | > 20000 nM | > 10000 nM | >1515.2 | >840.3 | >246.3 |
| 10 nM | C[C@@H]1CN(c2ccc(C#N)c3ncsc23)C[C@H](CN2CCN(c3cnc4c(c3)CNC4)CC2)O1 [Example 8, 7-[(2S,6R)-2-[[4-(6,7-dihydro-5H-pyrrolo[3,4-b]pyridin-3-yl)piperazin-1-yl]methyl]-6-methyl-morpholin-4-yl]-1,3-benzothiazole-4-carbonitrile] | > 20000 nM | > 10000 nM | >3333.3 | >1020.4 | >207.5 |
| 95 nM | COc1ccc(N2CCN(C[C@H]3CN(c4ccc(C#N)c5ncccc45)C[C@@H](C)O3)CC2)cc1 [Example R1, 5-[(2S,6R)-2-[[4-(4-methoxyphenyl)piperazin-1-yl]methyl]-6-methyl-morpholin-4-yl]quinoline-8-carbonitrile, reference compound] | 2740 nM | 879 nM | 6.2 | 9.3 | 0.1 |
| 12 nM | C[C@@H]1CN(c2ccc(C#N)c3ncccc23)C[C@H](CN2CCN(c3ccc4c(n3)CNCC4)CC2)O1 [Example 69, 5-[(2R,6S)-2-methyl-6-[[4-(5,6,7,8-tetrahydro-1,7-naphthyridin-2-yl)piperazin-1-yl]methyl]morpholin-4-yl]quinoline-8-carbonitrile] | > 20000 nM | 8650 nM | 1879.8 | 697.4 | 104.3 |
| 39 nM | C[C@@H]1CN(c2ccc(C#N)c3ncccc23)C[C@H](CN2CCN(c3ccc4c(c3)CNC4)CC2)O1 [Example 7, 5-[(2S,6R)-2-[(4-isoindolin-5-ylpiperazin-1-yl)methyl]-6-methyl-morpholin-4-yl] quinoline-8-carbonitrile] | > 20000 nM | 5740 nM | 194.6 | 146.5 | 64.5 |
| 26 nM | C[C@@H]1Cc2cc(N3CCN(C[C@H]4CN(c5ccc(C#N)c6ncccc56)C[C@@H](C)O4)CC3)ncc2CN1 (single isomer, unassigned) [Example 70] | > 20000 nM | > 10000 nM | >2439.0 | >390.6 | >120.91 |
| 14 nM | C[C@@H]1CN(c2ccc(C#N)c3ncccc23)C[C@H](CN2CCN(c3cc4c(cn3)C[C@H](C)NC4)CC2)O1 (single isomer, unassigned) [Example 76] | > 20000 nM | > 10000 nM | >1960.8 | >714.3 | >102.7 |
| 19 nM | C[C@@H]1CN(c2ccc(C#N)c3nccnc23)C[C@H](CN2CCN(c3cnc4c(c3)CNC4)CC2)O1 [Example 25, 8-[(2S,6R)-2-[[4-(6,7-dihydro-5H-pyrrolo[3,4-b]pyridin-3-yl)piperazin-1-yl]methyl]-6-methyl-morpholin-4-yl] quinoxaline-5-carbonitrile] | > 20000 nM | > 10000 nM | >584.8 | >520.8 | >111.7 |
| 210 nM | C[C@@H]1CN(c2ccc(C#N)c3ncccc23)C[C@H](CN2CCN(c3ccc(Cl)cc3)CC2)O1 [Example R2, 5-[(2S,6R)-2-[[4-(4-chlorophenyl)piperazin-1-yl]methyl]-6-methyl-morpholin-4-yl]quinoline-8-carbonitrile, reference compound] | 770 nM | 280 nM | 0.8 | 1.3 | 0.04 |
| 28 nM | CC1NCc2ncc(N3CCN(C[C@H]4CN(c5ccc(C#N)c6ncccc56)C[C@@H](C)O4)CC3)cc21 (stereo partly drawn) [Example 41, 5-[(2R,6S)-2-methyl-6-[[4-(5-methyl-6,7-dihydro-5H-pyrrolo[3,4-b]pyridin-3-yl)piperazin-1-yl]methyl]morpholin-4-yl]quinoline-8-carbonitrile] | > 20000 nM | > 10000 nM | >574.7 | >354.6 | >166.7 |
| 11 nM | C[C@@H]1CN(c2ccc(C#N)c3ncccc23)C[C@H](CN2CCN(c3ccc4c(n3)CCNC4)CC2)O1 [Example 14, 5-[(2R,6S)-2-methyl-6-[[4-(5,6,7,8-tetrahydro-1,6-naphthyridin-2-yl)piperazin-1-yl]methyl]morpholin-4-yl]quinoline-8-carbonitrile] | > 20000 nM | 7070 nM | 1725.4 | 673.7 | 122.8 |
| 8 nM | C[C@@H]1CN(c2ccc(C#N)c3ncccc23)C[C@H](CN2CCN(c3cc4c(cn3)CCNC4)CC2)O1 [Example 20, 5-[(2R,6S)-2-methyl-6-[[4-(5,6,7,8-tetrahydro-2,6-naphthyridin-3-yl)piperazin-1-yl]methyl]morpholin-4-yl]quinoline-8-carbonitrile] | > 20000 nM | > 10000 nM | >1666.7 | >1298.7 | >139.1 |
| 9 nM | C[C@@H]1CN(c2ccc(C#N)c3ncccc23)C[C@H](CN2CCN(c3cc4c(cn3)CNCC4)CC2)O1 [Example 19, 5-[(2R,6S)-2-methyl-6-[[4-(5,6,7,8-tetrahydro-2,7-naphthyridin-3-yl)piperazin-1-yl]methyl]morpholin-4-yl]quinoline-8-carbonitrile] | > 20000 nM | > 10000 nM | >2283.1 | >1118.6 | >158.3 |
